Here are results for 2 molecules from patent US20250082763A1, “COMBINATION DRUG FOR TREATING TRIPLE-NEGATIVE BREAST CANCER” (HINOVA PHARMACEUTICALS INC., priority 2022, published 2025).

Some results are limits rather than exact numbers.

Type in all cases: cell-based
For assay [1], the system named is MDA-MB-453 cells. Kind of assay: Combination with PI3K inhibitor Alpelisib, proliferation of MDA-MB-453 cells, Combination Index. The note with it: molar ratio to Alpelisib 1:27-9:1, 7 days. The protocol:
Triple negative breast cancer MDA-MB-453 cells in logarithmic growth stage were inoculated into a 96-well plate at a concentration of 4×10^3 cells/well, and then incubated in an incubator at 37° C., 5% CO2, and saturated humidity for 24 h. To the negative control wells, were added RPMI 1640 cell culture medium containing 10% fetal bovine serum in the same volume as the drug. After cultured for 24 h, to the 96-well plate, were sequentially added AR PROTACs compounds 279, 281, 282, ARV-110, ARV-766 and PI3K inhibitor Alpelisib, respectively.
(§1) After addition of the drugs and co-incubation for 7 days, 10 μL of CCK-8 was added to each well, and then the plate was further cultured for 2 h. The absorbance value (OD) of each well was measured using a microplate reader at a wavelength of 450 nm. The survival rate was calculated using Prism software, the relative survival rate=(OD value of drug well/OD value of control well)×100%. Alternatively, 100 μL of medium was removed from each well, and then 50 μL of CTG was added. The plate was shaken in the dark for 2 min, allowed to stand for 10 min, and then measured using a microplate reader in Luminescence mode. Prism software was used to calculate the survival rate, the relative survival rate=(the RLU value of drug well/the RLU value of control well)×100%.

For another assay, the system named is HCC1937. As to the kind of experiment: Antiproliferation, CellTiter-Glo, 5 days, HCC1937. The note with it: Homo sapiens, 120 h, HCC1937, AR− TNBC. The protocol: (§2) For MDA-MB-453, MFM-223, SUM159PT, MDA-MB-468, and HCC1937, 4,000, 3,000, 1,000, 3,000, and 3,000 cells were plated per well in 96-well microplates (Corning Inc), respectively. Cells were treated with serial dilutions of tested compounds with the maximum working concentration of 10 μM. Cell survival was measured 5 days later using a CellTiter-Glo luminescent cell viability assay kit (Promega Corporation). Luminescence was recorded by FLUOstar Omega microplate reader (BMG Labtech). Half maximal inhibitory concentration (IC50) was determined with GraphPad Prism using baseline correction (by normalizing to dimethyl sulfoxide (DMSO) control)
On the technique in general: ATP-based viability assays read luminescence as a measure of living cells.

For assay [2], the system named is MDA-MB-453 cells. As to the kind of experiment: Combination with PI3K inhibitor Duvelisib, proliferation of MDA-MB-453 cells, Combination Index. The note with it: molar ratio to Duvelisib 1:30-1:1.111, 7-10 days. On the procedure:
Triple negative breast cancer MDA-MB-453 cells in logarithmic growth stage were inoculated into a 96-well plate at a concentration of 4×10^3 cells/well, and then incubated in an incubator at 37° C., 5% CO2, and saturated humidity for 24 h. To the negative control wells, were added RPMI 1640 cell culture medium containing 10% fetal bovine serum in the same volume as the drug. After cultured for 24 h, to the 96-well plate, were sequentially added AR PROTACs compounds 279, 281, 282, ARV-110 and PI3K inhibitor Duvelisib, respectively.
as §1, with “adding” for “addition of”, “co-incubating” for “co-incubation”, “7-10” for “7”

Assay [3] deals with MDA-MB-453 cells. Kind of assay: Inhibition of proliferation of MDA-MB-453 cells (CCK-8 or CTG, 7-10 days). As to conditions: Homo sapiens, co-incubation 7-10 days, CCK-8 or CTG, read-out: IC50 values against MDA-MB-453 cells. The protocol: Triple negative breast cancer MDA-MB-453 cells in logarithmic growth stage were inoculated into a 96-well plate at a concentration of 4×10^3 cells/well, and then incubated in an incubator at 37° C., 5% CO2, and saturated humidity for 24 h or 48 h. To the negative control well, was added RPMI 1640 cell medium containing 10% fetal bovine serum in the same volume as the drug. After cultured for 24 h or 48 h, to the 96-well plate, were added AR PROTACs compounds 162, 177, 230, 259, 279, 281, 282, 325, 357, 400, ARV-110, ARV-766 and AR inhibitor HC-1119, respectively. The concentrations of compounds 177, 230, 259, 279, 281, 282, 325, 357, 400, ARV-110, and ARV-766 are 0 μM, 0.002 μM, 0.005 μM, 0.014 μM, 0.041 μM, 0.123 μM, 0.370 μM, 1.111 μM, 3.333 μM or 10 μM; while the concentrations of HC-1119 are 0 μM, 1.23 μM, 3.70 μM, 11.11 μM, 33.33 μM or 100 μM.
as §1, with “7-10” for “7”

In a further assay the test system is SUM159PT. Kind of assay: Antiproliferation, CellTiter-Glo, 5 days, SUM159PT. As to conditions: Homo sapiens, SUM-159-PT, 120 h, AR+ TNBC. On the procedure: Cells were treated with serial dilutions of tested compounds with the maximum working concentration of 10 μM. Cell survival was measured 5 days later using a CellTiter-Glo luminescent cell viability assay kit (Promega Corporation). Luminescence was recorded by FLUOstar Omega microplate reader (BMG Labtech). Half maximal inhibitory concentration (IC50) was determined with GraphPad Prism using baseline correction (by normalizing to dimethyl sulfoxide (DMSO) control)

A further assay deals with MFM-223. Kind of assay: Antiproliferation, CellTiter-Glo, 5 days, MFM-223. As to conditions: Homo sapiens, 120 h, MFM-223, AR+ TNBC. On the procedure:
as §2

`N#Cc1ccc(O[C@H]2CC[C@H](NC(=O)c3ccc(N4CCC(CN5CCN(c6cc7c(cc6F)C(=O)N(C6CCC(=O)NC6=O)C7=O)CC5)CC4)nn3)CC2)cc1Cl` (stereo partly drawn) [ARV-110, reference compound]: the “effect of the combination with Alpelisib on inhibiting proliferation (CI<1 = synergistic)” value in the assay on MDA-MB-453 cells [1] is on record as “synergistic effect”. The IC50 (usually the concentration that gives 50% inhibition) in the assay on HCC1937 is greater than 10000 nM; with MDA-MB-453 cells [3], no more than 2000 nM; with SUM159PT it was 1600 nM; in the assay with MFM-223, 4000 nM. Moreover, the “effect of the combination with Duvelisib on inhibiting proliferation (CI<1 = synergistic)” value with MDA-MB-453 cells [2] is “synergistic effect”.

As to `N#Cc1ccc(O[C@H]2CC[C@H](NC(=O)c3cnc(N4CCC(CN5CCC6(CC5)CN(c5ccc7c(c5)C(=O)N(C5CCC(=O)NC5=O)C7=O)C6)CC4)nn3)CC2)cc1Cl` (stereo partly drawn) [Compound 279], in the assay on MDA-MB-453 cells [1], the “effect of the combination with Alpelisib on inhibiting proliferation (CI<1 = synergistic)” value is “synergistic effect”. Further, the IC50 with HCC1937 is greater than 10000 nM; with MDA-MB-453 cells [3] it was no more than 2000 nM; with SUM159PT it was 440 nM; in the assay on MFM-223 it was 460 nM. In addition, in the assay with MDA-MB-453 cells [2], the “effect of the combination with Duvelisib on inhibiting proliferation (CI<1 = synergistic)” value is given as “synergistic effect”.
